Results reported in patent publication US20240376094A2, “SELECTIVE BCL-XL PROTAC COMPOUNDS AND METHODS OF USE” (Les Laboratoires Servier, priority 2021, published 2024).

How the values were obtained:
Format in all cases: cell-based
[1] = target: T1, Bcl-xL (Homo sapiens, UniProt Q07817); assay: HCT116 Bcl-xL degradation, capillary-based immunoassay (WES); settings: HCT116, 24 h, 9-point serial dilution
T1 construct: Measured levels of Bcl-xL protein of HCT116 cells treated with the tested compounds; host or cells: HCT116
T1 sequence (Q07817 whole entry): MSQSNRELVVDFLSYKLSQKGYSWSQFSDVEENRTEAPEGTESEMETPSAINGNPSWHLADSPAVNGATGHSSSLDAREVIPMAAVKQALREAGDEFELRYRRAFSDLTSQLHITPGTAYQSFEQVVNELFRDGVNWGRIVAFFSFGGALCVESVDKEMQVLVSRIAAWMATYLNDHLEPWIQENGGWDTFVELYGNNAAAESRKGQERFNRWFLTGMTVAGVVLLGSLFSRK
Method in brief: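 HCT116 cells treated 24 h with compound at 10/100 nM and/or 9-point dilution (quadruplicates), then lysed. Bcl-xL measured by capillary WES immunoassay, normalized to cofilin and expressed as % of untreated cells. DC50 from four-parameter curve fit.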

[2] = test system: MOLT-4 cells; assay: MOLT-4 cell viability, CTG assay; settings: Homo sapiens, MOLT-4, 48 h
Method in brief: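 Cells grown in RPMI 1640 with 10% FBS at 37° C, 5% CO2, then exposed to compounds for 48 h (11-point 5-fold dilution, triplicates). ATP measured by CellTiter-Glo luminescence; IC50 from four-parameter fit versus control, mean of ≥2 independent experiments.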

[3] = target: T2, HiBiT-tagged BCL-xL (Homo sapiens, UniProt Q07817); assay: NCI-H1650 BCL-xL protein levels, Nano-Glo HiBiT Lytic Detection; settings: NCI-H1650 expressing HiBiT-tagged BCL-xL, overnight incubation, read-out: Bcl-xl HIBIT NCIH1650 DC50
T2 construct: expressed in transfected cells; host or cells: NCI-H1650 (ATCC No. CRL-5883), engineered HiBiT cell line
T2 sequence (Q07817 whole entry): as above
Method in brief: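 NCI-H1650 cells expressing HiBiT-tagged BCL-xL (5000/well) were treated overnight at 37° C with 10 concentrations, final 0.508 nM-10 μM, in triplicate. Remaining BCL-xL measured by Nano-Glo HiBiT lytic luminescence, normalized to untreated cells; 50% values by four-parameter logistic fit.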

[4] = test system: EBC-1 lung cancer cell line; assay: EBC-1 cell proliferation, CellTiter-Glo assay; settings: Homo sapiens, 120 h; Ebc-1 cell viability, CTG assay, 5 days of treatment; read-out: CTG 5 day Ebc1 GI50
Method in brief: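 EBC-1 cells seeded at 1000 per well overnight, then exposed to 10-point dilutions (0.508 nM–10 μM final) for 5 days at 37 °C, in triplicate. ATP luminescence by CellTiter-Glo, normalised to untreated wells; GI50 from four-parameter logistic fit, runs valid only with at least one doubling.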

| Compound | DC50 [1] | IC50 [2] | DC50 [3] | GI50 [4] |
| --- | --- | --- | --- | --- |
| Cc1ncsc1-c1ccc([C@H](C)NC(=O)[C@@H]2C[C@@H](O)CN2C(=O)[C@@H](NC(=O)C2CCN(C(=O)CCCCCCCN(C)CCOC34CC5(C)CC(C)(CC(Cn6ncc(-c7ccc(N8CCCc9c8nnc(Nc8nc%10ccccc%10s8)c9C)nc7C(=O)O)c6C)(C5)C3)C4)CC2)C(C)(C)C)cc1 [Example 81, 6-[3-(1,3-benzothiazol-2-ylamino)-4-methyl-6,7-dihydro-5H-pyrido[2,3-c]pyridazin-8-yl]-3-[1-[[3-[2-[[8-[4-[[(1S)-1-[(2S,4R)-4-hydroxy-2-[[(1S)-1-[4-(4-methylthiazol-5-yl)phenyl]ethyl]carbamoyl]pyrrolidine-1-carbonyl]-2,2-dimethyl-propyl]carbamoyl]-1-piperidyl]-8-oxo-octyl]-methyl-amino]ethoxy]-5,7-dimethyl-1-adamantyl]methyl]-5-methyl-pyrazol-4-yl]pyridine-2-carboxylic acid] | > 316 nM | 15.1 nM | > 1670 nM | 203 nM |
| Cc1ncsc1-c1ccc([C@H](C)NC(=O)[C@@H]2C[C@@H](O)CN2C(=O)[C@@H](NC(=O)C2CCN(C(=O)CCCCCCCCCCN(C)CCOC34CC5(C)CC(C)(CC(Cn6ncc(-c7ccc(N8CCCc9c8nnc(Nc8nc%10ccccc%10s8)c9C)nc7C(=O)O)c6C)(C5)C3)C4)CC2)C(C)(C)C)cc1 [Example 82, 6-[3-(1,3-benzothiazol-2-ylamino)-4-methyl-6,7-dihydro-5H-pyrido[2,3-c]pyridazin-8-yl]-3-[1-[[3-[2-[[11-[4-[[(1S)-1-[(2S,4R)-4-hydroxy-2-[[(1S)-1-[4-(4-methylthiazol-5-yl)phenyl]ethyl]carbamoyl]pyrrolidine-1-carbonyl]-2,2-dimethyl-propyl]carbamoyl]-1-piperidyl]-11-oxo-undecyl]-methyl-amino]ethoxy]-5,7-dimethyl-1-adamantyl]methyl]-5-methyl-pyrazol-4-yl]pyridine-2-carboxylic acid] | > 316 nM | 10 nM | > 1670 nM | 157 nM |
| Cc1ncsc1-c1ccc([C@H](C)NC(=O)[C@@H]2C[C@@H](O)CN2C(=O)[C@@H](NC(=O)C2CCN(C(=O)CCCCCCCCCN(C)CCOC34CC5(C)CC(C)(CC(Cn6ncc(-c7ccc(N8CCCc9c8nnc(Nc8nc%10ccccc%10s8)c9C)nc7C(=O)O)c6C)(C5)C3)C4)CC2)C(C)(C)C)cc1 [Example 84, 6-[3-(1,3-benzothiazol-2-ylamino)-4-methyl-6,7-dihydro-5H-pyrido[2,3-c]pyridazin-8-yl]-3-[1-[[3-[2-[[10-[4-[[(1S)-1-[(2S,4R)-4-hydroxy-2-[[(1S)-1-[4-(4-methylthiazol-5-yl)phenyl]ethyl]carbamoyl]pyrrolidine-1-carbonyl]-2,2-dimethyl-propyl]carbamoyl]-1-piperidyl]-10-oxo-decyl]-methyl-amino]ethoxy]-5,7-dimethyl-1-adamantyl]methyl]-5-methyl-pyrazol-4-yl]pyridine-2-carboxylic acid] | > 316 nM | 18.1 nM | > 1670 nM | 171 nM |

The next lines start with the values.

| DC50 [1] | IC50 [2] | DC50 [3] | GI50 [4] | Compound |
| --- | --- | --- | --- | --- |
| 0.28 nM | 8.34 nM | 3 nM | 134 nM | Cc1ncsc1-c1ccc(CNC(=O)[C@@H]2C[C@@H](O)CN2C(=O)[C@@H](NC(=O)C2(F)CC2)C(C)(C)C)c(OCCCCCCCCCCCN(C)CCOC23CC4(C)CC(C)(CC(Cn5ncc(-c6ccc(N7CCCc8c7nnc(Nc7nc9ccccc9s7)c8C)nc6C(=O)O)c5C)(C4)C2)C3)c1 [Example 76, 6-[3-(1,3-benzothiazol-2-ylamino)-4-methyl-6,7-dihydro-5H-pyrido[2,3-c]pyridazin-8-yl]-3-[1-[[3-[2-[11-[2-[[[(2S,4R)-1-[(2S)-2-[(1-fluorocyclopropanecarbonyl)amino]-3,3-dimethyl-butanoyl]-4-hydroxy-pyrrolidine-2-carbonyl]amino]methyl]-5-(4-methylthiazol-5-yl)phenoxy]undecyl-methyl-amino]ethoxy]-5,7-dimethyl-1-adamantyl]methyl]-5-methyl-pyrazol-4-yl]pyridine-2-carboxylic acid] |
| > 316 nM | 4.54 nM | > 1670 nM | 167 nM | Cc1ncsc1-c1ccc(CNC(=O)[C@@H]2C[C@@H](O)CN2C(=O)[C@@H](NC(=O)C2(F)CC2)C(C)(C)C)c(OCCCCCCCCCCCCCCCCN(C)CCOC23CC4(C)CC(C)(CC(Cn5ncc(-c6ccc(N7CCCc8c7nnc(Nc7nc9ccccc9s7)c8C)nc6C(=O)O)c5C)(C4)C2)C3)c1 [Example 77, 6-[3-(1,3-benzothiazol-2-ylamino)-4-methyl-6,7-dihydro-5H-pyrido[2,3-c]pyridazin-8-yl]-3-[1-[[3-[2-[16-[2-[[[(2S,4R)-1-[(2S)-2-[(1-fluorocyclopropanecarbonyl)amino]-3,3-dimethyl-butanoyl]-4-hydroxy-pyrrolidine-2-carbonyl]amino]methyl]-5-(4-methylthiazol-5-yl)phenoxy]hexadecyl-methyl-amino]ethoxy]-5,7-dimethyl-1-adamantyl]methyl]-5-methyl-pyrazol-4-yl]pyridine-2-carboxylic acid] |
| 0.399 nM | 6.06 nM | > 1670 nM | 66 nM | Cc1ncsc1-c1ccc(CNC(=O)[C@@H]2C[C@@H](O)CN2C(=O)[C@@H](NC(=O)C2(F)CC2)C(C)(C)SCCCCCCCCCCCCN(C)CCOC23CC4(C)CC(C)(CC(Cn5ncc(-c6ccc(N7CCCc8c7nnc(Nc7nc9ccccc9s7)c8C)nc6C(=O)O)c5C)(C4)C2)C3)cc1 [Example 79, 6-[3-(1,3-benzothiazol-2-ylamino)-4-methyl-6,7-dihydro-5H-pyrido[2,3-c]pyridazin-8-yl]-3-[1-[[3-[2-[12-[(2R)-2-[(1-fluorocyclopropanecarbonyl)amino]-3-[(2S,4R)-4-hydroxy-2-[[4-(4-methylthiazol-5-yl)phenyl]methylcarbamoyl]pyrrolidin-1-yl]-1,1-dimethyl-3-oxo-propyl]sulfanyldodecyl-methyl-amino]ethoxy]-5,7-dimethyl-1-adamantyl]methyl]-5-methyl-pyrazol-4-yl]pyridine-2-carboxylic acid] |
| 3.57 nM | 6.11 nM | > 1670 nM | 92 nM | Cc1ncsc1-c1ccc(CNC(=O)[C@@H]2C[C@@H](O)CN2C(=O)[C@@H](NC(=O)C2(F)CC2)C(C)(C)SCCCCCCCCCCCCCCN(C)CCOC23CC4(C)CC(C)(CC(Cn5ncc(-c6ccc(N7CCCc8c7nnc(Nc7nc9ccccc9s7)c8C)nc6C(=O)O)c5C)(C4)C2)C3)cc1 [Example 80, 6-[3-(1,3-benzothiazol-2-ylamino)-4-methyl-6,7-dihydro-5H-pyrido[2,3-c]pyridazin-8-yl]-3-[1-[[3-[2-[14-[(2R)-2-[(1-fluorocyclopropanecarbonyl)amino]-3-[(2S,4R)-4-hydroxy-2-[[4-(4-methylthiazol-5-yl)phenyl]methylcarbamoyl]pyrrolidin-1-yl]-1,1-dimethyl-3-oxo-propyl]sulfanyltetradecyl-methyl-amino]ethoxy]-5,7-dimethyl-1-adamantyl]methyl]-5-methyl-pyrazol-4-yl]pyridine-2-carboxylic acid] |
| 0.291 nM | 4.17 nM | 5 nM | 64 nM | Cc1ncsc1-c1ccc(CNC(=O)[C@@H]2C[C@@H](O)CN2C(=O)[C@@H](NC(=O)C2(F)CC2)C(C)(C)C)c(OCCCCCCCCCCCCCN(C)CCOC23CC4(C)CC(C)(CC(Cn5ncc(-c6ccc(N7CCCc8c7nnc(Nc7nc9ccccc9s7)c8C)nc6C(=O)O)c5C)(C4)C2)C3)c1 [Example 85, 6-[3-(1,3-benzothiazol-2-ylamino)-4-methyl-6,7-dihydro-5H-pyrido[2,3-c]pyridazin-8-yl]-3-[1-[[3-[2-[13-[2-[[[(2S,4R)-1-[(2S)-2-[(1-fluorocyclopropanecarbonyl)amino]-3,3-dimethyl-butanoyl]-4-hydroxy-pyrrolidine-2-carbonyl]amino]methyl]-5-(4-methylthiazol-5-yl)phenoxy]tridecyl-methyl-amino]ethoxy]-5,7-dimethyl-1-adamantyl]methyl]-5-methyl-pyrazol-4-yl]pyridine-2-carboxylic acid] |
